Values after ≈ are worked out from the molar mass of the structure shown.
Experiments:
[1] = target: T1, M5 (Homo sapiens, UniProt P08912); assay: radioligand binding inhibition; conditions: […] separate tests; read-out: EC50 or IC50
T1 construct: gene CHRM5; human recombinant receptor
T1 sequence (P08912 1-532): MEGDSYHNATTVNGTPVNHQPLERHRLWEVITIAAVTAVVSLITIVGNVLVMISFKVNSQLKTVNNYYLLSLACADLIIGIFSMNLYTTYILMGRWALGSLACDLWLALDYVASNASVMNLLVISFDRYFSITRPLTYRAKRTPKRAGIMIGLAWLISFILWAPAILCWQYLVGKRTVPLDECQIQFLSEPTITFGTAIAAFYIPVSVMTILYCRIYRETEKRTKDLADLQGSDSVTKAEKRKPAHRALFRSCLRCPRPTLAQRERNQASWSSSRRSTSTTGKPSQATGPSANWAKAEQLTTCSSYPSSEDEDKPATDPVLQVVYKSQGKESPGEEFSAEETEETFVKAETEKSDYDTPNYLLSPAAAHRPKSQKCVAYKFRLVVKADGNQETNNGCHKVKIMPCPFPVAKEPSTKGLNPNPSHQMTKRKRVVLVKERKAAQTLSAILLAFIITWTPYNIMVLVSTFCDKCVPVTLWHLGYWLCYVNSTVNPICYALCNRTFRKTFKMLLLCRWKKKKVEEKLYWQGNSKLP
Excerpt: radioligand binding inhibition on M5

[2] = target: T2, M2 (muscarinic subtype 2 acetylcholine receptor) (Homo sapiens, UniProt P08172); assay: radioligand binding inhibition screen; conditions: read-out: % inhibition or stimulation^a
T2 construct: gene CHRM2; human recombinant receptor
T2 sequence (P08172 1-466): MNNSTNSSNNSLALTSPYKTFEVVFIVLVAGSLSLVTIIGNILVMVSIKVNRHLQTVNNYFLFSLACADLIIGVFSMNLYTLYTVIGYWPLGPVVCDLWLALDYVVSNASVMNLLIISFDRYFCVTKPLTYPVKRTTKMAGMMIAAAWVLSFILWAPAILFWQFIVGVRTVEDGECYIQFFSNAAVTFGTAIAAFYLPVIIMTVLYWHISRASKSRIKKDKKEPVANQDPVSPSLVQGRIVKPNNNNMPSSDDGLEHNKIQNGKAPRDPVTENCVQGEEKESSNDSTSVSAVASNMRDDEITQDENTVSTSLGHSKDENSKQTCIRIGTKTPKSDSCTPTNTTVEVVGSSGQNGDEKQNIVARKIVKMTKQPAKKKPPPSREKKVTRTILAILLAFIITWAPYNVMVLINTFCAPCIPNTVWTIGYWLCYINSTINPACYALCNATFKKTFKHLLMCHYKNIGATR
Excerpt: radioligand binding inhibition screen on M2 (muscarinic subtype 2 acetylcholine receptor)

[3] = target: T3, M1 (Homo sapiens, UniProt P11229); assay: radioligand binding inhibition; conditions: […] test; read-out: EC50 or IC50
T3 construct: gene CHRM1; human recombinant receptor
T3 sequence (P11229 1-460): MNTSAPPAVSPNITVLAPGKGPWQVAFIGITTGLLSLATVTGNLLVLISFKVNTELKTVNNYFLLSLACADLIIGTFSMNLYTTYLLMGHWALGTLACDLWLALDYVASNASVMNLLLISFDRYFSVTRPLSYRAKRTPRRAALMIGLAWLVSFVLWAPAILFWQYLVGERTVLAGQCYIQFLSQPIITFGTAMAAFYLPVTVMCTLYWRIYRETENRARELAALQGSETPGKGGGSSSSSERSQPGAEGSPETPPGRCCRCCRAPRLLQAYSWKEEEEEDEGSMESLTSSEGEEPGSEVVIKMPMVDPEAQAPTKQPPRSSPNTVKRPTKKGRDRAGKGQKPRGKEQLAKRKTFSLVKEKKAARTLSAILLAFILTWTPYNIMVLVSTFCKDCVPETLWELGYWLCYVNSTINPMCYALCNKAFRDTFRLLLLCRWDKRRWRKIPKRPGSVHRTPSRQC
Excerpt: radioligand binding inhibition on M1

[4] = target: T4, hERG (human ether-a-go-go-related gene) channel (Homo sapiens, UniProt Q12809); assay: hERG tail current electrophysiology, HEK293 cells; assay type: cell-based; conditions: room temperature; […] tested; corrected for vehicle rundown; point-to-point fit
T4 construct: gene KCNH2; hERG cDNA stably transfected in HEK293 cells; homotetramer

[5] = target: T5, M4 (Homo sapiens, UniProt P08173); assay: radioligand binding inhibition; conditions: […] separate tests; read-out: EC50 or IC50
T5 construct: gene CHRM4; human recombinant receptor
T5 sequence (P08173 1-479): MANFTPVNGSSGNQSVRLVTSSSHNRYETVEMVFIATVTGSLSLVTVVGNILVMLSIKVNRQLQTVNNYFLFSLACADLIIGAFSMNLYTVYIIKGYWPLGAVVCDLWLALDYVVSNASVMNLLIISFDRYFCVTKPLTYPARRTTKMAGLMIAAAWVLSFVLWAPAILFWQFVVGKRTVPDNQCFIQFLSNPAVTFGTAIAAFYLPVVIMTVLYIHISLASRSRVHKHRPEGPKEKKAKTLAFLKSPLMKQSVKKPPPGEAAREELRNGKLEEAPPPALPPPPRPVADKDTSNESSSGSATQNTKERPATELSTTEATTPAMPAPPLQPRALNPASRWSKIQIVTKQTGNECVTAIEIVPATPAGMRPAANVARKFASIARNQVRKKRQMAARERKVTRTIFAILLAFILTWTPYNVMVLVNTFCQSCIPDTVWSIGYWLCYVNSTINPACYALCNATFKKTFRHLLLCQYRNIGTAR
Excerpt: radioligand binding inhibition on M4

[6] = target: T2, M2 (muscarinic subtype 2 acetylcholine receptor); assay: functional M2 agonist assay; assay type: cell-based; conditions: agonist mode; […] separate tests; read-out: EC50 or IC50
Excerpt: functional M2 agonist assay on M2 (muscarinic subtype 2 acetylcholine receptor)

[7] = target: T2, M2 (muscarinic subtype 2 acetylcholine receptor); assay: functional M2 antagonist assay; assay type: cell-based; conditions: antagonist mode; range of […] separate tests ([…])
[8] = target: T2, M2 (muscarinic subtype 2 acetylcholine receptor); assay: radioligand binding inhibition; conditions: range of […] separate tests ([…] and […])
[9] = target: T6, M3 (muscarinic receptor M3) (Homo sapiens, UniProt P20309); assay: radioligand binding inhibition; conditions: […] test; read-out: EC50 or IC50
T6 construct: gene CHRM3; human recombinant receptor
Excerpt: radioligand binding inhibition on M3 (muscarinic receptor M3)

T6 sequence (P20309 whole entry): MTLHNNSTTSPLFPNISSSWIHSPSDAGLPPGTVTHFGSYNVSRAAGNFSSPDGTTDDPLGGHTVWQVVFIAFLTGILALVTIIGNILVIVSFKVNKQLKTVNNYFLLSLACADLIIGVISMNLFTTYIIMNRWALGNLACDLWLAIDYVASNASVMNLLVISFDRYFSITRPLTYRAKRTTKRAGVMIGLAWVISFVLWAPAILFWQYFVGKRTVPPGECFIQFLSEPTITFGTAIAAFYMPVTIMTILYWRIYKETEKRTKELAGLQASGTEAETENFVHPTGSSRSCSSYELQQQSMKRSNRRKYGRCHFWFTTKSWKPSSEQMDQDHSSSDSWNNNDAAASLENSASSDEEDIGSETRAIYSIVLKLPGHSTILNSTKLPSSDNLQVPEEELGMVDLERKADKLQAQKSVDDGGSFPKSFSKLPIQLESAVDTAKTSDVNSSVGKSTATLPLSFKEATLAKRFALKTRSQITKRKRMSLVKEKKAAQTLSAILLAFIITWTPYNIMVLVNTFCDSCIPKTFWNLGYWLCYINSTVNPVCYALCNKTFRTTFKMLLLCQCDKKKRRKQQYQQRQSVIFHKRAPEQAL
T4 sequence (Q12809 whole entry): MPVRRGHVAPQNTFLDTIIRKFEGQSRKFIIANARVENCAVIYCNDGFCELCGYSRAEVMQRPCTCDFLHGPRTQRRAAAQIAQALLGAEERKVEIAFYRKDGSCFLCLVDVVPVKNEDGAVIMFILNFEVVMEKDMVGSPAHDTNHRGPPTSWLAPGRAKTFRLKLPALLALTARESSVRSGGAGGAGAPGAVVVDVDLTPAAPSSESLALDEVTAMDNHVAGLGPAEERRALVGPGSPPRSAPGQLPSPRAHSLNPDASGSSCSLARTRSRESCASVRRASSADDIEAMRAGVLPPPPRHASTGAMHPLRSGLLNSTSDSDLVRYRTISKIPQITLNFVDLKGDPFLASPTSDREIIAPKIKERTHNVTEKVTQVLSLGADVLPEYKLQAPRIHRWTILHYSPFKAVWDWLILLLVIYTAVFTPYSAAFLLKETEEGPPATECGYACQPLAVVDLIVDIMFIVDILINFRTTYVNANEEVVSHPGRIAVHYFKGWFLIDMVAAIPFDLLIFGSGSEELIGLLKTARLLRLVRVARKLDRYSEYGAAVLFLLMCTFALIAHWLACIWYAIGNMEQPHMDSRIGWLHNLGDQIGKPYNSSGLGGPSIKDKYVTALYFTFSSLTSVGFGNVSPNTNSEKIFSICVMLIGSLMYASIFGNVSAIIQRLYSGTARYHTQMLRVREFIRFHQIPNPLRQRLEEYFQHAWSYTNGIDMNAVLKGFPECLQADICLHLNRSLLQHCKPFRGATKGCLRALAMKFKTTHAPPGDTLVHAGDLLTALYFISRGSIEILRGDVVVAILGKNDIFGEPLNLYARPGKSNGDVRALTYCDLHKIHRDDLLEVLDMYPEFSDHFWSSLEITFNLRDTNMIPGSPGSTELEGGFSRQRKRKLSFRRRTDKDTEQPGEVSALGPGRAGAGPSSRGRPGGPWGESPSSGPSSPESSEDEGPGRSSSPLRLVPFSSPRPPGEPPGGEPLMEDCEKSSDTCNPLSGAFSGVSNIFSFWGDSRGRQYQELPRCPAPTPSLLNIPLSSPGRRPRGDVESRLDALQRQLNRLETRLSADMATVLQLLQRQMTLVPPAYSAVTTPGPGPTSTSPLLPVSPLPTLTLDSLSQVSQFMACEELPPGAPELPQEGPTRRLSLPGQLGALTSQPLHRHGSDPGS

IC50 [1]: > 30 µM
inhibition at 10 µM [2]: 82%
IC50 [3]: 29 µM
IC50 [5]: > 30 µM
EC50 [6]: > 30 µM
IC50 [7]: 21 to 28 µM
IC50 [8]: 4.2 to 4.3 µM
IC50 [9]: > 30 µM
Compound: CN(C)c1cc(CNCC(C)(C)C)c(O)c2c1C[C@H]1C[C@H]3[C@H](N(C)C)C(=O)C(C(N)=O)=C(O)[C@@]3(O)C(=O)C1=C2O [omadacycline]
IC25 [4]: 166 µg/mL (≈ 298 µM)
